# Earlier results, collected in patent US8822429B2, “Citicoline for the treatment of glaucoma and ocular hypertension” (Omikron Italia S.r.l., priority 2010, dated 2014).
# Conditions: taken orally
structure (smiles),measurement,setting,value
"C[N+](C)(C)CCOP(=O)(O)OP(=O)([O-])OC[C@H]1O[C@@H](n2ccc(N)nc2=O)[C@H](O)[C@@H]1O [Citicoline, cytidine-5′-diphosphocholine]",excreted in the feces,,less than 1%
same,time of plasma peak after ingestion,first peak,1 h
same,"time of second, larger plasma peak",larger peak following the first,24 h
